Reference: patent US8563254B2, “Biomarkers of tumor pharmacodynamic response” (Novartis AG, priority 2009, dated 2013)

Columns and labels:
Type in all cases: cell-based, human
GTL-16 cells [1] = test: Western blot of total protein lysates, GTL-16; conditions: GTL-16, 0.3 μM, 16 hr and 24 hr
Protocol: Total protein lysates were prepared from the GTL-16 and A375 cells with RIPA lysis buffer (Upstate, Millipore Corporation, Charlottesville, Va., USA). Cells were washed with PBS and 500 ul of ice-cold RIPA buffer, containing protease inhibitor cocktail tablet (Roche Diagnostic GmbH, Mannheim, Germany) and phosphatase inhibitors (Sigma-Aldrich, Inc., St. Louis, Mo., USA), was added to each plate on ice. After 15 min the cells were scrapped from the plate surface and spun at 16000 RPM for 10 min at 4° C. The supernatant was collected and frozen at −80° C. Nuclear protein fractions were prepared by the NE-PER nuclear and cytoplasmic extraction kit (Pierce Biotechnology, Rockford, Ill., USA). Proteins were quantified by bicinchoninic acid assay (Pierce Biotechnology, Rockford, Ill., USA) for Western blotting. Primary antibodies specific for NFκB p65, cREL, p-ERK1/2, p-c-jun, ERK1 and Jun were purchased from Santa Cruz Biotechnology (Santa Cruz Biotechnology, Inc., Santa Cruz, Calif., USA) with the exception of Hsp70 and TBP (nuclear loading control), which were obtained from StressGen (StressGen, Assay Designs, Inc., Aim Arbor, Mich., USA) and Abcam (Abcam Inc., Cambridge, Mass., USA), respectively. 4-12% Bis-Tris SDS-PAGE, denaturing, non-reducing gels were loaded with 30 μg of total protein, a SeeBlue2Plus pre-stained protein standard and MES SDS running buffer were utilized for the electrophoretic separation in a XCell SureLock™ Mini-Cell (Invitrogen Corporation, Inc., Carlsbad, Calif., USA). An iBlot™ gel transfer PVDF stack with iBlot™ gel transfer system (Invitrogen) was used. An Odyssey Infrared Imaging System was used to detect the immunocomplex (Li-COR Biotechnologies, Inc., Lincoln, Nebr., USA). Li-COR blocking buffer was used to limit cross-reactivity. Membranes were incubated at 4° C. overnight in the primary antibody diluted in blocking buffer, followed by 1 hr room temperature incubation with a secondary IgG antibody (Li-COR IR dye, Li-COR).

GTL-16 cells [2] = test: Cell viability by CellTiter-Glo, GTL-16; conditions: GTL-16, 0.3 μM, 72 hr treatment time
Protocol: Cell Viability was measured by CellTiter-Glo assay (Promega U.S., Madison, Wis., USA). GTL-16 and A375 cells were grown in 6-well poly-D-lysine coated plates (BD Biosciences). Cells were treated with NVP-AUY922. Cell viability was measured 16, 24, 48 and 72 hr post-treatment with Hsp90 inhibitor. Briefly supernatants were removed and cells were washed with 3 ml of PBS, pH 7.4. 1 ml of a two component CellTiter-Glo reagent was added to each well and the plates were shaken vigorously for 2 min, followed by 10 min incubation at room temperature in the dark. Luminescent signal intensity was recorded with an integration time set between 0.25 and 1 s/well.

GTL-16 cells [3] = test: Quantitative RT-PCR of IL-8 mRNA, GTL-16; conditions: GTL-16, 0.3 μM, 16 hr, treated versus untreated
Protocol: Total cellular RNA was extracted from the GTL-16 and A375 cell lines using RNeasy mini kit (Qiagen, Inc., Valencia, Calif., USA). Total RNA quantitation was carried out using a RiboGreen assay (Invitrogen Corporation, Carlsbad, Calif., USA). 1 μg of total RNA was reverse transcribed using AMV reverse transcriptase (Reverse Transcription Kit, Promega U.S., Madison, Wis., USA). A 20 μl reaction cocktail was prepared as follows; 1 μg total RNA in 10 μl of RNase, DNase-free H2O, 4 μl of 25 mM MgCl2, 2 μl of 10× reverse transcriptase buffer, 2 μl of 10 mM dNTP's, 1 μl of 500 μg ml^−1 random hexamers, 1.5 μl of 10 μl ml^−1, and 40 U μl^−1 0.5 μl of recombinant RNase Inhibitor. Real time PCR was performed using a 7900HT fast real-time PCR system (Applied Biosystems, Foster City, Calif., USA) using the Power SYBR Green PCR master mix (Applied Biosystems). The primers for IL-8 and GAPDH were: IL-8 sense: 5′-[…]-3′ (SEQ ID NO:3) and IL-8 antisense:
5′-[…]-3′ (SEQ ID NO:4); and GAPDH sense:
5′-[…]-3′ (SEQ ID NO:5), and GAPDH antisense;
5′-[…]-3′. (SEQ ID NO:6) The amplification process involved an initial 5 min denaturing step at 95° C. This was followed by annealing reactions for both IL-8 and GAPDH, of 45 s at 95° C. with 230 s at 68° C. for 34 cycles and 1 min at 95° C. with 1 min at 60° C. and 1 min 72° C. for 30 cycles, respectively. The final extension was 10 min at 72° C. […]

With `CCNC(=O)c1noc(-c2cc(C(C)C)c(O)cc2O)c1-c1ccc(CN2CCOCC2)cc1` [NVP-AUY922, 5-(2,4-Dihydroxy-5-isopropyl-phenyl)-4-(4-morhpolin-4-ylmethyl-phenyl)-isoxazole-3-carboxylic acid ethylamide] the Hsp70 induction (GTL-16 cells [1]) was “induction was observed”, the “levels of phospho-ERK1/2 and phospho-c-Jun” value (GTL-16 cells [1]) was “significantly diminished” and the “total ERK and c-Jun levels” value (GTL-16 cells [1]) was “unaffected”. The “total cellular levels of NFκB p65 and c-REL” value (GTL-16 cells [1]) was “essentially unchanged”, the “cell viability over time” value (GTL-16 cells [2]) was “steadily declines” and the “decrease in IL-8 mRNA expression” value (GTL-16 cells [3]) was 85%.
